# Data reported in PMC3465774, “Plant odorants interfere with detection of sex pheromone signals by male Heliothis virescens” (Frontiers in Cellular Neuroscience, 2012).
# Biological target: T1, HR13 (Heliothis virescens, UniProt Q6A1K1)
# T1 construct: stably expressed, tetracycline-induced, in Flp-In T-REx293/Galpha15 (HEK293) cells; no Orco mentioned
# T1 sequence (Q6A1K1 1-425): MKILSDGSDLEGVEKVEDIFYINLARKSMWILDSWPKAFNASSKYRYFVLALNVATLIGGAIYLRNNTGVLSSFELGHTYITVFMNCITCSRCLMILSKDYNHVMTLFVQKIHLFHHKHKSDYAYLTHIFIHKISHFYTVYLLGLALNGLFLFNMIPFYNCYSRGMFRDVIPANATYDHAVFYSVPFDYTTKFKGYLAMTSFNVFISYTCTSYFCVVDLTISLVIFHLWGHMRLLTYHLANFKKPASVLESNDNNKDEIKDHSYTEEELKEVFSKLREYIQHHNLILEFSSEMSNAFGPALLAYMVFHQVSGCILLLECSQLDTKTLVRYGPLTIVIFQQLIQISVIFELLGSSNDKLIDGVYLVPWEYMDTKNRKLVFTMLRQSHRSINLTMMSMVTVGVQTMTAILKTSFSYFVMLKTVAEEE
# Test: fura-2 calcium imaging, mixture with Z11-16:Ald
# Format: cell-based
# Conditions: inhibitor of response to 1 nM Z11-16:Ald; no agonism at 100 nM; competitive or allosteric not resolved
smiles,measurement,value
C=CC(C)(O)CCC=C(C)C (stereo not shown) [linalool],"F/F0 of mixture (1, 10, 100 nM)",linalool reduced the pheromone-induced calcium response of HR13 cells in a dose-dependent manner
